These results are taken from BindingDB's records for doi:10.1016/j.bmcl.2009.04.116 (Banyu Pharmaceutical, 2009).

For this test, the target named is Nociceptin receptor (Homo sapiens, UniProt P41146). As to the kind of experiment: In Vitro Binding Assay (IC50) and In Vitro Agonism/Antagonism Measurements (EC50/IC50). On the procedure: IC50 values are calculated using GraphPad Prism. Agonist/antagonist activities were measured by the [35S]GTPgamma-S binding to proteins using membrane fractions of CHO cells expressing ORL1. Nonspecific binding is determined in the presence of 10 uM unlabeled GTPgammaS. Membrane-bound radioactivity is measured using a TopCount-HTS (PerkinElmer). Specific binding of [35S]GTPgammaS is determined as a difference between the control (in the presence of appropriate concentration of nociceptin), and the baseline (in the presence of DMSO instead of compound). EC50/IC50 values are calculated from % of specific binding in the presence of various concentration of the compound using GraphPad Prism 3.03.
Sequence of Nociceptin receptor (P41146 whole entry): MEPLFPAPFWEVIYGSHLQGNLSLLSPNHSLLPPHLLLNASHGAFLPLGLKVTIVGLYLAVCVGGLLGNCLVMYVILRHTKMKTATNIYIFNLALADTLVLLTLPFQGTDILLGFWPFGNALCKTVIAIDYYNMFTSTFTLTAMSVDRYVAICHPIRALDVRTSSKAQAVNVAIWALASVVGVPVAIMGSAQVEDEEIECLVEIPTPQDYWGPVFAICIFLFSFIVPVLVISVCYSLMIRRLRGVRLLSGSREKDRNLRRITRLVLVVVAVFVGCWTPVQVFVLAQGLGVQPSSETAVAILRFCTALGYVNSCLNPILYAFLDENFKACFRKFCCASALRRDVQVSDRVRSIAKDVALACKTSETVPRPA

The structures appear in SMILES notation. pEC50: −log10 of the molar value.

Compound `Cc1c(CNC(C)C)nn(-c2ccc(Cl)cc2Cl)c1-c1ccc(Cl)cc1` [arylpyrazole, 1] had a negative-log EC50 (pEC50) (pH 7.4, 37 °C) of 6.32. As for `Cc1c(CNC2CCCC2)nn(-c2ncccc2Cl)c1-c1ccc(Cl)nc1` [arylpyrazole, 18], the pEC50 (pH 7.4, 37 °C) is 7.92. Still for that read-out and setting: the result for `Cc1ccc(-c2c(C)c(CNC3CCCC3)nn2-c2ncccc2Cl)cn1` [arylpyrazole, 19] reads 8.33. `Cc1ccc(-c2c(C)c(CNC3CCCC3F)nn2-c2ncccc2Cl)cn1` (stereo not drawn) [arylpyrazole, 27]: the pEC50 is 8.15. In turn, `Cc1ccc(-c2c(C)c(CN[C@H]3CC[C@@H](F)C3)nn2-c2ncccc2Cl)cn1` [arylpyrazole, 28] showed a pEC50 of 9.00. `Cc1ccc(-c2c(C)c(CNC3CCC(F)(F)C3)nn2-c2ncccc2Cl)cn1` (stereo not drawn) [arylpyrazole, 29] had a pEC50 of 8.35. Still for that read-out and setting: the result for `Cc1ncc(-c2c(C)c(CNC3CCCC3)nn2-c2ncccc2Cl)cc1F` [arylpyrazole, 30] reads 8.92; that for `Cc1ncc(-c2c(C)c(CN[C@H]3CC[C@@H](F)C3)nn2-c2ncccc2Cl)cc1F` [arylpyrazole, 31], 9.51.

For orientation: pEC50 means −log10 of the EC50, conventionally taken in molar units.
